ChEMBL document CHEMBL1131919, “Monocarboxylic-based phosphotyrosyl mimetics in the design of GRB2 SH2 domain inhibitors” (Bioorg Med Chem Lett, 1999)
pIC50: −log10 of the molar value.

Each compound was assayed against Growth factor receptor-bound protein 2 (Homo sapiens, UniProt P62993) (assay: Inhibitory concentration against Growth factor receptor bound protein 2 in MDA-MB-453 cells).
Assay type: cell-based

Row | Compound | pIC50
1 | NC(Cc1ccc(OCC(=O)O)cc1)C(=O)O (stereo not given) | 5.60
2 | NC(Cc1ccc(C(F)(F)C(=O)O)cc1)C(=O)O (stereo not given) | 4.55
3 | NC(Cc1ccc(CC(=O)O)cc1)C(=O)O (stereo not given) | 4.19
4 | NC(=O)C[C@H](NC(=O)C1(NC(=O)[C@@H](Cc2ccc(C(F)(F)C(=O)O)cc2)NC(=O)C(=O)O)CCCCC1)C(=O)NCCCc1cccc2ccccc12 | 5.70

Further lines, results first:

Row | pIC50 | Compound
5 | 4.82 | NC(=O)C[C@H](NC(=O)C1(NC(=O)[C@@H](Cc2ccc(OCC(=O)O)cc2)NC(=O)C(=O)O)CCCCC1)C(=O)NCCCc1cccc2ccccc12
6 | 8.15 | CC(=O)N[C@H](Cc1ccc(OP(=O)(O)O)cc1)C(=O)NC1(C(=O)N[C@@H](CC(N)=O)C(=O)NCCCc2cccc3ccccc23)CCCCC1
7 | 4.19 | CC(=O)N[C@H](Cc1ccc(OCC(=O)O)cc1)C(=O)NC1(C(=O)N[C@@H](CC(N)=O)C(=O)NCCCc2cccc3ccccc23)CCCCC1
8 | 4.55 | CC(=O)N[C@H](Cc1ccc(C(F)(F)C(=O)O)cc1)C(=O)NC1(C(=O)N[C@@H](CC(N)=O)C(=O)NCCCc2cccc3ccccc23)CCCCC1
9 | 5.60 | CC(=O)N[C@H](Cc1ccc(CC(=O)O)cc1)C(=O)NC1(C(=O)N[C@@H](CC(N)=O)C(=O)NCCCc2cccc3ccccc23)CCCCC1
10 | 6.22 | NC(=O)C[C@H](NC(=O)C1(NC(=O)[C@@H](Cc2ccc(CC(=O)O)cc2)NC(=O)C(=O)O)CCCCC1)C(=O)NCCCc1cccc2ccccc12
